Laboratory results reported in patent US10004792B2, “Peptides and combination of peptides for use in immunotherapy against various cancers” (immatics biotechnologies GmbH, priority 2015, dated 2018).

Assays:
[1] = system: CD8+ T cells; assay: In vitro immunogenicity: T-cell priming with aAPCs loaded with peptide/MHC and anti-CD28, multimer staining; format: cell-based, human; details: for Wells positive [%]: in vitro immunogenicity of HLA class I peptides, peptide-specific multimer staining after aAPC priming of CD8+ T cells
Text: In order to obtain information regarding the immunogenicity of the TUMAPs of the present invention, the inventors performed investigations using an in vitro T-cell priming assay based on repeated stimulations of CD8+ T cells with artificial antigen presenting cells (aAPCs) loaded with peptide/MHC complexes and anti-CD28 antibody.
In order to perform in vitro stimulations by artificial antigen presenting cells loaded with peptide-MHC complex (pMHC) and anti-CD28 antibody, the inventors first isolated CD8+ T cells from fresh HLA-A*02 leukapheresis products via positive selection using CD8 microbeads (Miltenyi Biotec, Bergisch-Gladbach, Germany) of healthy donors obtained from the University clinics Mannheim, Germany, after informed consent.
PBMCs and isolated CD8+ lymphocytes were incubated in T-cell medium (TCM) until use consisting of RPMI-Glutamax (Invitrogen, Karlsruhe, Germany) supplemented with 10% heat inactivated human AB serum (PAN-Biotech, Aidenbach, Germany), 100 U/ml Penicillin/100 μg/ml Streptomycin (Cambrex, Cologne, Germany), 1 mM sodium pyruvate (CC Pro, Oberdorla, Germany), 20 µg/ml Gentamycin (Cambrex). 2.5 ng/ml IL7 (PromoCell, Heidelberg, Germany) and 10 U/ml IL-2 (Novartis Pharma, Nurnberg, Germany) were also added to the TCM at this step.
Generation of pMHC/anti-CD28 coated beads, T-cell stimulations and readout was performed in a highly defined in vitro system using four different pMHC molecules per stimulation condition and 8 different pMHC molecules per readout condition.
The purified co-stimulatory mouse IgG2a anti human CD28 Ab 9.3 (Jung et al., 1987) was chemically biotinylated using Sulfo-N-hydroxysuccinimidobiotin as recommended by the manufacturer (Perbio, Bonn, Germany). Beads used were 5.6 μm diameter streptavidin coated polystyrene particles (Bangs Laboratories, Illinois, USA).
pMHC used for positive and negative control stimulations were A*0201/MLA-001 (peptide […] (SEQ ID NO. 303) from modified Melan-A/MART-1) and A*0201/DDX5-001 ([…] from DDX5, SEQ ID NO. 304), respectively.
800.000 beads/200 μl were coated in 96-well plates in the presence of 4×12.5 ng different biotin-pMHC, washed and 600 ng biotin anti-CD28 were added subsequently in a volume of 200 μl. Stimulations were initiated in 96-well plates by co-incubating 1×10^6 CD8+ T cells with 2×10^5 washed coated beads in 200 μI TCM supplemented with 5 ng/ml IL-12 (PromoCell) for 3 days at 37° C. Half of the medium was then exchanged by fresh TCM supplemented with 80 U/ml IL-2 and incubating was continued for 4 days at 37° C. This stimulation cycle was performed for a total of three times. For the pMHC multimer readout using 8 different pMHC molecules per condition, a two-dimensional combinatorial coding approach was used as previously described (Andersen et al., 2012) with minor modifications encompassing coupling to 5 different fluorochromes. Finally, multimeric analyses were performed by staining the cells with Live/dead near IR dye (Invitrogen, Karlsruhe, Germany), CD8-FITC antibody clone SK1 (BD, Heidelberg, Germany) and fluorescent pMHC multimers. For analysis, a BD LSRII SORP cytometer equipped with appropriate lasers and filters was used. Peptide specific cells were calculated as percentage of total CD8+ cells. Evaluation of multimeric analysis was done using the FlowJo software (Tree Star, Oreg., USA). In vitro priming of specific multimer+CD8+ lymphocytes was detected by comparing to negative control stimulations.

[2] = system: HLA-A*24; assay: MHC binding assay (UV-ligand exchange, beta2m ELISA), HLA-A*24; design: species or system human; details: peptide exchange yield, binding to HLA-A*24, UV-ligand exchange, β2m ELISA
Text: Candidate peptides for T cell based therapies according to the present invention were further tested for their MHC binding capacity (affinity). The individual peptide-MHC complexes were produced by UV-ligand exchange, where a UV-sensitive peptide is cleaved upon UV-irradiation, and exchanged with the peptide of interest as analyzed. Only peptide candidates that can effectively bind and stabilize the peptide-receptive MHC molecules prevent dissociation of the MHC complexes. To determine the yield of the exchange reaction, an ELISA was performed based on the detection of the light chain (β2m) of stabilized MHC complexes. The assay was performed as generally described in Rodenko et al. (Rodenko et al., 2006).
96 well MAXISorp plates (NUNC) were coated over night with 2 ug/ml streptavidin in PBS at room temperature, washed 4× and blocked for 1 h at 37° C. in 2% BSA containing blocking buffer. Refolded HLA-A*02:01/MLA-001 monomers served as standards, covering the range of 15-500 ng/ml. Peptide-MHC monomers of the UV-exchange reaction were diluted 100 fold in blocking buffer. Samples were incubated for 1h at 37° C., washed four times, incubated with 2 ug/ml HRP conjugated anti-62m for 1 h at 37° C., washed again and detected with TMB solution that is stopped with […]. Absorption was measured at 450 nm. Candidate peptides that show a high exchange yield (preferably higher than 50%, most preferred higher than 75%) are generally preferred for a generation and production of antibodies or fragments thereof, and/or T cell receptors or fragments thereof, as they show sufficient avidity to the MHC molecules and prevent dissociation of the MHC complexes.

Substance | Peptide exchange [2] | Wells positive [%] [1] | also measured
5 (GIVAHIQEV; listed as Homo sapiens) [compound 5] | – | + (<20% = +) | –
18 (ILLDLTDNRL; listed as Homo sapiens) [compound 18] | – | + (<20% = +) | –
23 (SLFSDEFKV; listed as Homo sapiens) [compound 23] | – | ++++ (>=70% = ++++) | –
26 (ALQEELTEL; listed as Homo sapiens) [compound 26] | – | + (<20% = +) | –
29 (YLLDPSITL; listed as Homo sapiens) [compound 29] | – | + (<20% = +) | –
31 (TITETTVEV; listed as Homo sapiens) [compound 31] | – | + (<20% = +) | –
35 (FLLPFSTVYL; listed as Homo sapiens) [compound 35] | – | + (<20% = +) | –
90 (FLQDLEQRL; listed as Homo sapiens) [compound 90] | – | + (<20% = +) | –
141 (FLDKVLVAA; listed as Homo sapiens) [compound 141] | – | + (<20% = +) | –
149 (ILNTHITEL; listed as Homo sapiens) [compound 149] | – | + (<20% = +) | –
196 (LYIDRPLPYL; listed as Homo sapiens) [compound 196] | – | ++++ (>=70% = ++++) | –
197 (EYSLFPGQVVI; listed as Homo sapiens) [compound 197] | – | + (<20% = +) | –
207 (AYVVFVSTL; listed as Homo sapiens) [compound 207] | – | + (<20% = +) | –
210 (IYTMIYRNL; listed as Homo sapiens) [compound 210] | ++++ (>=75% = ++++) | – | –
218 (YYKSTSSAF; listed as Homo sapiens) [compound 218] | – | + (<20% = +) | –
230 (KLQNIMMLL; listed as Homo sapiens) [compound 230] | – | ++++ (>=70% = ++++) | –
268 (QYLGQIQHI; listed as Homo sapiens) [compound 268] | – | + (<20% = +) | –
269 (YFIDSTNLKTHF; listed as Homo sapiens) [compound 269] | – | + (<20% = +) | –
274 (AYLHSHALI; listed as Homo sapiens) [compound 274] | ++++ (>=75% = ++++) | – | –
285 (HYPPVQVLF; listed as Homo sapiens) [compound 285] | – | + (<20% = +) | –
290 (KIVDFSYSV; listed as Homo sapiens) [compound 290] | – | – | Wells (in vitro immunogenicity) ([1]; healthy donor CD8+ T cells, three stimulation cycles, multimer readout): ++ (20%-49% = ++)

Now from value to substance, other results behind:

Peptide exchange [2] | Substance | Wells positive [%] [1] | also measured
++++ (>=75% = ++++) | 160 (VYTLDIPVL; listed as Homo sapiens) [compound 160] | – | –
++++ (>=75% = ++++) | 161 (IYLVSIPEL; listed as Homo sapiens) [compound 161] | – | –
++++ (>=75% = ++++) | 166 (YYVESGKLF; listed as Homo sapiens) [compound 166] | – | –
++++ (>=75% = ++++) | 168 (KYQDILETI; listed as Homo sapiens) [compound 168] | – | –
++++ (>=75% = ++++) | 172 (TYTTVPRVAF; listed as Homo sapiens) [compound 172] | – | –
++++ (>=75% = ++++) | 173 (IYSWILDHF; listed as Homo sapiens) [compound 173] | – | –
++++ (>=75% = ++++) | 175 (YYEVHKELF; listed as Homo sapiens) [compound 175] | – | –
++++ (>=75% = ++++) | 177 (VYPWLGALL; listed as Homo sapiens) [compound 177] | – | –
++++ (>=75% = ++++) | 179 (MYDSYWRQF; listed as Homo sapiens) [compound 179] | – | –
++++ (>=75% = ++++) | 181 (LYLDIINLF; listed as Homo sapiens) [compound 181] | – | –
++++ (>=75% = ++++) | 184 (VFQNFPLLF; listed as Homo sapiens) [compound 184] | – | –
++++ (>=75% = ++++) | 186 (IFPQFLYQF; listed as Homo sapiens) [compound 186] | – | –
++++ (>=75% = ++++) | 187 (TYLRDQHFL; listed as Homo sapiens) [compound 187] | – | –
++++ (>=75% = ++++) | 192 (SYALLTYMI; listed as Homo sapiens) [compound 192] | – | –
++++ (>=75% = ++++) | 193 (RFHPTPLLL; listed as Homo sapiens) [compound 193] | – | –
+ (<20% = +) | 194 (EFGSLHLEFL; listed as Homo sapiens) [compound 194] | – | –

Peptide exchange [2] | Substance | Wells positive [%] [1] | also measured
++++ (>=75% = ++++) | 195 (TYSVSFPMF; listed as Homo sapiens) [compound 195] | – | –
++++ (>=75% = ++++) | 202 (VYWDSAGAAHF; listed as Homo sapiens) [compound 202] | – | –
++++ (>=75% = ++++) | 211 (YYLEVGKTLI; listed as Homo sapiens) [compound 211] | – | –
++++ (>=75% = ++++) | 216 (QYSSVFKSL; listed as Homo sapiens) [compound 216] | – | –
++++ (>=75% = ++++) | 217 (FFPPTRQMGLLF; listed as Homo sapiens) [compound 217] | – | –
++++ (>=75% = ++++) | 227 (IFLDYEAGTLSF; listed as Homo sapiens) [compound 227] | – | –
++++ (>=75% = ++++) | 228 (KYTSWYVAL; listed as Homo sapiens) [compound 228] | – | –
++++ (>=75% = ++++) | 267 (KYMVYPQTF; listed as Homo sapiens) [compound 267] | – | –
++++ (>=75% = ++++) | 271 (LYHDIFSRL; listed as Homo sapiens) [compound 271] | – | –
++++ (>=75% = ++++) | 272 (QYLQDAYSF; listed as Homo sapiens) [compound 272] | – | –
++++ (>=75% = ++++) | 276 (VYGFQWRHF; listed as Homo sapiens) [compound 276] | – | –
++++ (>=75% = ++++) | 277 (VYQGHTALL; listed as Homo sapiens) [compound 277] | – | –
++++ (>=75% = ++++) | 278 (RYISDQLFTNF; listed as Homo sapiens) [compound 278] | – | –
++++ (>=75% = ++++) | 280 (RYPDNLKHLYL; listed as Homo sapiens) [compound 280] | – | –
++++ (>=75% = ++++) | 282 (KFVDSTFYL; listed as Homo sapiens) [compound 282] | – | –
++++ (>=75% = ++++) | 289 (KYPVEWAKF; listed as Homo sapiens) [compound 289] | – | –
